How the values were obtained:
[1] = tested on: HUVEC-12 endothelial cells; experiment: Tubule formation of HUVEC-12 endothelial cells (Matrigel); format: cell-based, Human; settings: direct treatment of HUVEC-12, 3 h; compounds 10 μM, VEGF165 10 ng/mL; vs control medium
Procedure: (§1) The experiment included seven groups. In Group 1, HUVEC-12 endothelial cells (purchased from Shanghai RongChuang Biotech Co., Ltd.) were treated directly with simple DMEM medium (Gibcol, Shanghai) containing 10% FBS (SERANA, Germany) (control). In Group 2, the endothelial cells were treated with the supernatant obtained 24 h after macrophages were cultured with DMEM medium containing 10% FBS (s-control). In Group 3, the endothelial cells cultured with DMEM medium containing 10% FBS were treated directly with TG-028 (TG-028, 10 μM). In Group 4, the endothelial cells were treated with the supernatant obtained after macrophages cultured with DMEM medium containing 10% FBS were treated and co-incubated with TG-028 for 24 h (s-TG-028, […]). In Group 5, the endothelial cells cultured with DMEM medium containing 10% FBS were treated directly with Cpd-18 (Salvianolate) (cpd-18, 10 μM). In Group 6, the endothelial cells were treated with the supernatant obtained after macrophages cultured with DMEM medium containing 10% FBS were treated and co-incubated with Cpd-18 (Salvianolate, 10 μM) for 24 h (s-cpd18). In Group 7, the endothelial cells cultured with DMEM medium containing 10% FBS were treated directly with VEGFD (Recombinant Human VEGF165, 10 ng/mL).
A 96-well plate and sterile yellow pipette tip were stored overnight in a refrigerator at −20° C. The packed Matrigel was thawed overnight in a refrigerator at 4° C. before the experiment. On the following day, the Matrigel thawed was centrifuged for a few minutes. 60 μL per well of the pre-cooled Matrigel was added to a 96-well plate in an ice bath on a ultra-clean bench, and then allowed to stand in an incubator for 1 h. After Matrigel was solidified, HUVEC-12 cells in logarithmic growth phase were taken and adjusted for the cell density. The cells were well mixed with each group of medium at a density of 5×10^4 cells/well and inoculated into a 96-well plate. […] The tube-like structure was analyzed by ImageJ image-analysis software, and the tube formation ability was evaluated using number of master junction as a quantitative index.

[2] = tested on: rats with middle cerebral artery occlusion (MCAO); experiment: Acute cerebral infarction model in rats with middle cerebral artery occlusion (MCAO); format: in vivo, male SD rats; settings: MCAO, after 3 days, FIGS. 11-13
Excerpt: After obtaining the active molecules that can promote the expression of VEGF-A mRNA in the animal model of inflammatory angiogenesis, a rat model of cerebral infarction was used for further verification. Following the method as described in Longa, E. Z., Longa, E. Z., Weinstein, P. R., Carlson, S. & Commin, R. Reversible middle cerebral artery occlusion without craniectomy in rats. [J]. Stroke, 1989. 1: 84-91, an acute cerebral infarction model was established in rats with middle cerebral artery occlusion (MCAO); and following the method as described in C. dela Torre, T. Fortin, G. A. S. Park, K. S. Butler, P. Kozlowski, B. A. Pappas, H. de Socarraz, J. K. Saunders and M. T. Richard. [J]. Brain Research, 1992. 582:186-195, a chronic cerebral ischemia model was established in rats with permanent ligation of bilateral common carotid arteries (2VO). The inhibition on cerebral infarction and neuroprotection for brain injury of the active molecules screened in Effect Example 2 were verified.
The control drugs were: Edaravone (purchased from Zhejiang Shengtong Biotechnology Co., Ltd.), Clopidogrel bisulfate (purchased from Wuhan Yuancheng Gongchuang Technology Co., Ltd.), and Salvianolate (purchased from Henan Provincial People's Hospital). Clopidogrel bisulfate is a platelet aggregation inhibitor, and Edaravone is a brain protectant (free radical scavenger). The MCAO model of rats was made by the thread occlusion method. The rats used in this effect example were male SD rats weighing 280-320 grams, purchased from Shanghai SLAC Laboratory Animal Co., Ltd. Five SD (Sprague Dawley) rats in each group were administered by intraperitoneal injection, 2 h before surgery, and every 24 h after modeling.
Three days later, the brain was taken, and the rat brain was stained with TTC (2,3,5-triphenyltetrazolium chloride, to detect the cell viability) and then photographed. Infarction rate (%)=(Non-infarction area of right brain section−non-infarction area of left brain section)/total area of brain section*100%. According to t tests, *P<0.05, **P<0.01, ***P<0.001 compared with the model group (MCAO). Infarction inhibition rate (%) at different doses=(infarction rate of model group-infarction rate of treatment group)/infarction rate of model group*100%. The infarction inhibition rate at different doses was plotted, and the ED50 of the drug was calculated.
Moreover, the body weight of the rats was recorded. The rate of body weight change was calculated according to a formula: Rate of body weight change (%)=(final weight-initial weight)/[…].
Three days after the acute cerebral infarction model was established in rats with MCAO, the test rats were scored for neurological function according to the Longa nerve scoring standard.
Three days after the acute cerebral infarction model of MCAO was established in rats, the intact brain tissue was taken out, olfactory bulb and the brain tissue that is 4 mm in front of the frontal pole was removed, and the immediately adjacent brain tissue of 2 mm thick was taken for water content measurement in the brain. The water content in brain tissue is calculated by the formula: (WW−DW)/WW×100%, where WW is the wet weight and DW is the dry weight. Three days after the acute cerebral infarction model of MCAO was established in rats, the brain tissue was stained with Evans Blue (EB, a commonly used azo dye preparation) to evaluate the permeability across the blood-brain barrier (BBB), so as to evaluate the integrity of blood-brain barrier. Both experiments were tested with the optimal dose of each drug previously determined: TG-028 (5 mg/Kg), Salvianolate (20 mg/Kg), Clopidogrel bisulfate (40 mg/Kg), Edaravone (40 mg/Kg).

[3] = tested on: HUVEC-12 endothelial cells; experiment: Migration of HUVEC-12 endothelial cells (scratch test); format: cell-based, Human; settings: direct treatment of HUVEC-12, 24 h; compounds 10 μM, VEGF165 10 ng/mL; vs control medium
Procedure: as §1
Human umbilical vein endothelial cells HUVEC-12 in logarithmic growth phase were counted, adjusted to a cell density of 5×10^5 cells/mL, and inoculated in 1 mL per well in a 6-well plate. The cells were conventionally cultured in an incubator to form monolayer cells of 90% confluency. The 6-well plate fully plated with cells was scratched perpendicular to the cell surface with a 200 μL pipette tip from one end to the other end of the well. The scratches were made transversely with the pipette tip being as perpendicular as possible to the bottom of the plate. […]
The medium was aspirated and the cells scratched off were washed off with PBS. […] The migration of endothelial cells was detected according to the cell scratch method and the relative migration rate was calculated. […]

With VEGF the “effect on tube formation of endothelial cells (in words)” value [1] was “significant effect on the tube formation of endothelial cells”, the “inhibitory effect on cerebral infarction (in words)” value [2] was “can inhibit cerebral infarction in rats” and the “effect on migration of endothelial cells (in words)” value [3] was “significant effect on the migration of endothelial cells”.

Source: patent US11325937B2, “Glycoside compound and preparation method therefor, composition, application, and intermediate” (SHANGHAI HUTCHISON PHARMACEUTICALS LIMITED, priority 2018, dated 2022)
